Source: patent publication US20100143383A1, “OXGR1 AGONISTS FOR USE IN THERAPIES FOR METABOLIC DISORDERS” (priority 2008, published 2010)

Experiments:
[1] = molecular target: recombinant human OXGR1 (Homo sapiens, UniProt Q96P68); conditions: Nature 429:188-193, 2004, read-out: EC50 for activation of OXGR1; cited from earlier work
[2] = test system: isolated mouse islets; experiment: glucose-stimulated insulin secretion (GSIS/GDIS) in isolated mouse islets, insulin by ELISA; assay type: cell-based; conditions: WT C57BL/6J mouse islets, 60 min, FIG. 3
Experimental: Pancreatic islets of Langerhans were isolated from the pancreata of wild type (WT) C57BL/6J mice (Taconic Farm, N.Y.) by collagenase digestion and discontinuous Ficoll gradient separation, a modification of the original method of Lacy and Kostianovsky (Lacy P E, Kostianovsky M: Diabetes 16:35-39, 1967). The islets were cultured overnight in RPMI 1640 medium (11 mM glucose) before GDIS assay.
To measure GSIS, islets were first preincubated for 30 min in the Krebs-Ringer bicarbonate (KRB) buffer with 2 mM glucose (in petri dishes). The KRB medium contains 143.5 mM Na+, 5.8 mM K+, 2.5 mM Ca2+, 1.2 mM Mg2+, 124.1 mM Cl−, 1.2 mM PO43−, 1.2 mM […], 25 mM CO32−2 mg/ml bovine serum albumin (pH 7.4). The islets were then transferred to a 96-well plate (one islet/well) and incubated at 37° C. for 60 min in 200 μl of KRB buffer with 2 or 16 mM glucose, and other agents to be tested such as GLP-1 included as a control. (Zhou Y P, et al: J Biol Chem 278:51316-51323, 2003). Insulin was measured in aliquots of the incubation buffer by ELISA with a commercial kit (ALPCO Diagnostics, Windham, N.H.).
The compound had no effects on the basal insulin secretion at 2 mM glucose (G2).

[3] = molecular target: recombinant mouse OXGR1 (Mus musculus, UniProt Q6IYF8); conditions: Nature 429:188-193, 2004, read-out: EC50 for activation of OXGR1; cited from earlier work
Chain of recombinant mouse OXGR1 (Q6IYF8 whole entry): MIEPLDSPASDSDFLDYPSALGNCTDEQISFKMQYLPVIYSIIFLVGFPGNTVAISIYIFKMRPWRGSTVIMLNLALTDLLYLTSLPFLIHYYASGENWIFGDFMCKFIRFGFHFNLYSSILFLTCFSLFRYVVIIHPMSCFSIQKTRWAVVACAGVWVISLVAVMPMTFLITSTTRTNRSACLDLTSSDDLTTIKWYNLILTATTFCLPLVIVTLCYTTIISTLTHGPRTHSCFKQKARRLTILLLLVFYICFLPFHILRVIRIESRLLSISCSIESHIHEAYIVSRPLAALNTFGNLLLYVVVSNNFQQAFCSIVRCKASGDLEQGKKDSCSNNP

Chain of recombinant human OXGR1 (Q96P68 whole entry): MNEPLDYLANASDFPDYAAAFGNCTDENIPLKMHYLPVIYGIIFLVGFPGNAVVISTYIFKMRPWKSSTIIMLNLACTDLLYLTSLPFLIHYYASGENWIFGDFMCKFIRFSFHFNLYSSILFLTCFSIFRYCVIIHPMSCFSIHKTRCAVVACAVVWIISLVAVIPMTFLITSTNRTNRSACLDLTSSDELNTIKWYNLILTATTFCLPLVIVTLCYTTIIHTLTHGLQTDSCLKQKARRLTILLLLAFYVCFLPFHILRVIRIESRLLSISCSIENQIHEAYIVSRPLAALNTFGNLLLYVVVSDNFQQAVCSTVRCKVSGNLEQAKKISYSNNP

For `O=C(O)CCC(=O)C(=O)O` [α-KG, α-ketoglutarate], the EC50 [1] is given as 70 µM, the “effect on basal insulin secretion at 2 mM glucose (G2)” value ([2]; 2 mM glucose) is given as “no effects” and the “effect on 16 mM glucose (G16) stimulated insulin secretion” value ([2]; 16 mM glucose) is given as “dose-dependently enhanced”. The EC50 [3] was 70 µM.
